Assay results published in US12049439B2 (OrsoBio, Inc., priority 2018, dated 2024).

Tested on: PC-3 cells
Assay: PC-3 Oxygen Rate Consumption (OCR) Assay
Type: cell-based
Conditions: Homo sapiens, 0.05 h, medium with 2% FBS, OCR at 3-min post-injection normalized to % increase over DMSO-treated cells, concentration for half-maximal OCR increase, read-out: EC50-PC3-OCR-FBS-3min
How it was run: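 Oxygen consumption read on Seahorse XFe96: three basal measurements, then compound injection and 10 cycles over 30 min. EC50 defined as concentration giving half-maximal OCR rise, using 3-min post-injection values as % above DMSO controls, six replicates per treatment, in PC-3 cells in glucose/pyruvate medium.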

| SMILES | EC50 [µM] |
| --- | --- |
| NS(=O)(=O)c1ccc(S(=O)(=O)Nc2cc(C(F)(F)F)ccc2C(=O)NC23CC(C(F)(F)F)(C2)C3)cc1 [Example 58, 2-((4-sulfamoylphenyl)sulfonamido)-4-(trifluoromethyl)-N-(3-(trifluoromethyl)bicyclo[1.1.1]pentan-1-yl)benzamide] | 63.4 |
| CS(=O)(=O)CCS(=O)(=O)Nc1cc(OC(F)(F)F)ccc1C(=O)NC12CCC(C(F)(F)F)(CC1)CC2 [Example 248, 2-((2-(methylsulfonyl)ethyl)sulfonamido)-4-(trifluoromethoxy)-N-(4-(trifluoromethyl)bicyclo[2.2.2]octan-1-yl)benzamide] | 5.7 |
| CC(C)(C)S(=O)(=O)Nc1ccc(Br)cc1C(=O)NC12CC(C(F)(F)F)(C1)C2 [Example 95, 5-bromo-2-((1,1-dimethylethyl)sulfonamido)-N-(3-(trifluoromethyl)bicyclo[1.1.1]pentan-1-yl)benzamide] | 1.12 |
| N#Cc1ccc(C(=O)NC23CC(C(F)(F)F)(C2)C3)c(NS(=O)(=O)N2CCC2)c1 [Example 247, 2-(azetidine-1-sulfonamido)-4-cyano-N-(3-(trifluoromethyl)bicyclo[1.1.1]pentan-1-yl)benzamide] | 4.79 |
| CCS(=O)(=O)Nc1ccc(C(F)(F)F)cc1C(=O)NC12CCC(C#N)(CC1)CC2 [Example 120, N-(4-cyanobicyclo[2.2.2]octan-1-yl)-2-(ethylsulfonamido)-5-(trifluoromethyl)benzamide] | 8.01 |
| CS(=O)(=O)Nc1ccc(C(F)(F)F)cc1C(=O)NC12CC(Cl)(C1)C2 [Example 80, N-(3-chlorobicyclo[1.1.1]pentan-1-yl)-2-(methylsulfonamido)-5-(trifluoromethyl)benzamide] | 2.54 |
| N#CC12CCC(NC(=O)c3cc(C(F)(F)F)ccc3NS(=O)(=O)N3CC(OC(F)F)C3)(CC1)CC2 [Example 224, N-(4-cyanobicyclo[2.2.2]octan-1-yl)-2-((3-(difluoromethoxy)azetidine)-1-sulfonamido)-5-(trifluoromethyl)benzamide] | 2.42 |
| CS(=O)(=O)Nc1cc(S(F)(F)(F)(F)F)ccc1C(=O)NC12CC(C(F)(F)F)(C1)C2 [Example 146, 2-(methylsulfonamido)-4-(pentafluoro-λ^6-sulfanyl)-N-(3-(trifluoromethyl)bicyclo[1.1.1]pentan-1-yl)benzamide] | 0.677 |
| CC(C)(C)S(=O)(=O)Nc1ccc(C(F)(F)F)cc1C(=O)NC12CC(C(F)(F)F)(C1)C2 [Example 157, 2-((1,1-dimethylethyl)sulfonamido)-5-(trifluoromethyl)-N-(3-(trifluoromethyl)bicyclo[1.1.1]pentan-1-yl)benzamide] | 0.352 |
| O=C(NC12CC(C(F)(F)F)(C1)C2)c1ccc(C(F)(F)F)cc1NS(=O)(=O)c1ccc(N2CCCS2(=O)=O)cc1 [Example 29, 2-((4-(1,1-dioxidoisothiazolidin-2-yl)phenyl)sulfonamido)-4-(trifluoromethyl)-N-(3-(trifluoromethyl)bicyclo[1.1.1]pentan-1-yl)benzamide] | 8.8 |
| N#CC12CCC(NC(=O)c3cc(Cl)ccc3NS(=O)(=O)C3(C#N)CC3)(CC1)CC2 [Example 211, 5-chloro-N-(4-cyanobicyclo[2.2.2]octan-1-yl)-2-((1-cyanocyclopropane)-1-sulfonamido)benzamide] | 15.4 |
| N#CC1CCN(S(=O)(=O)Nc2ccc(C(F)(F)F)cc2C(=O)NC23CCC(C#N)(CC2)CC3)CC1 [Example 233, N-(4-cyanobicyclo[2.2.2]octan-1-yl)-2-((4-cyanopiperidine)-1-sulfonamido)-5-(trifluoromethyl)benzamide] | 4.79 |
| COC12CC(NC(=O)c3cc(C(F)(F)F)ccc3NS(=O)(=O)C(C)(C)C)(C1)C2 [Example 169, 2-((1,1-dimethylethyl)sulfonamido)-N-(3-methoxybicyclo[1.1.1]pentan-1-yl)-5-(trifluoromethyl)benzamide] | 11.4 |
| O=C(NC12CC(C(F)(F)F)(C1)C2)c1ccc(C(F)(F)F)cc1NS(=O)(=O)c1ccc(-c2ncccn2)cc1 [Example 101, 2-((4-(pyrimidin-2-yl)phenyl)sulfonamido)-4-(trifluoromethyl)-N-(3-(trifluoromethyl)bicyclo[1.1.1]pentan-1-yl)benzamide] | 1.18 |
| CC(C)(C)S(=O)(=O)Nc1ccc(C(F)(F)F)cc1C(=O)NC12CCC(O)(CC1)CC2 [Example 171, 2-((1,1-dimethylethyl)sulfonamido)-N-(4-hydroxybicyclo[2.2.2]octan-1-yl)-5-(trifluoromethyl)benzamide] | 112 |
| NC(=O)c1ccc(S(=O)(=O)Nc2cc(C(F)(F)F)ccc2C(=O)NC23CC(c4ccccc4)(C2)C3)cc1 [Example 51, 2-((4-carbamoylphenyl)sulfonamido)-N-(3-phenylbicyclo[1.1.1]pentan-1-yl)-4-(trifluoromethyl)benzamide] | 28.8 |
| O=C(NC12CCC(C(F)(F)F)(CC1)CC2)c1cc(OC(F)(F)F)ccc1NS(=O)(=O)C1CCS(=O)(=O)CC1 [Example 210, 2-((1,1-dioxidotetrahydro-2H-thiopyran)-4-sulfonamido)-5-(trifluoromethoxy)-N-(4-(trifluoromethyl)bicyclo[2.2.2]octan-1-yl)benzamide] | 4.35 |

| SMILES | EC50 [µM] |
| --- | --- |
| CN(C)S(=O)(=O)Nc1ccc(C(F)(F)F)cc1C(=O)NC12CCC(C#N)(CC1)CC2 [Example 190, N-(4-cyanobicyclo[2.2.2]octan-1-yl)-2-((N,N-dimethylsulfamoyl)amino)-5-(trifluoromethyl)benzamide] | 4.15 |
| CS(=O)(=O)Nc1cc(C(F)(F)F)ccc1C(=O)NC12CC(C(F)(F)F)(C1)C2 [Example 147, 2-(methylsulfonamido)-4-(trifluoromethyl)-N-(3-(trifluoromethyl)bicyclo[1.1.1]pentan-1-yl)benzamide] | 1.58 |
| CC(C)(C)S(=O)(=O)Nc1cc(C#N)ccc1C(=O)NC12CC(c3ccccc3)(C1)C2 [Example 98, 4-cyano-2-((1,1-dimethylethyl)sulfonamido)-N-(3-phenylbicyclo[1.1.1]pentan-1-yl)benzamide] | 1.98 |
| CC(C)(C)S(=O)(=O)Nc1cc(C(F)(F)F)ccc1C(=O)NC12CCC(C#N)(CC1)CC2 [Example 114, N-(4-cyanobicyclo[2.2.2]octan-1-yl)-2-((1,1-dimethylethyl)sulfonamido)-4-(trifluoromethyl)benzamide] | 3.48 |
| CC1(S(=O)(=O)Nc2cc(C(F)(F)F)ccc2C(=O)NC23CC(C#N)(C2)C3)CC1 [Example 64, N-(3-cyanobicyclo[1.1.1]pentan-1-yl)-2-((1-methylcyclopropane)-1-sulfonamido)-4-(trifluoromethyl)benzamide] | 5.22 |
| CCS(=O)(=O)c1ccc(S(=O)(=O)Nc2cc(C(F)(F)F)ccc2C(=O)NC23CC(C#N)(C2)C3)cc1 [Example 25, N-(3-cyanobicyclo[1.1.1]pentan-1-yl)-2-((4-(ethylsulfonyl)phenyl)sulfonamido)-4-(trifluoromethyl)benzamide] | ≥ 50 |
| CC(C)S(=O)(=O)Nc1cc(C#N)ccc1C(=O)NC12CCC(C#N)(CC1)CC2 [Example 78, 4-cyano-N-(4-cyanobicyclo[2.2.2]octan-1-yl)-2-((1-methylethyl)sulfonamido)benzamide] | 39.8 |
| CN(C)S(=O)(=O)Nc1ccc(C(F)(F)F)cc1C(=O)NC12CC3CC(CC(C#N)(C3)C1)C2 [Example 177, N-((1R,5R)-3-cyanoadamantan-1-yl)-2-((N,N-dimethylsulfamoyl)amino)-5-(trifluoromethyl)benzamide] | 1.86 |
| COc1ccc(C(=O)NC23CC(c4ccccc4)(C2)C3)c(NS(=O)(=O)c2ccc(S(C)(=O)=O)cc2)c1 [Example 89, 4-methoxy-2-((4-(methylsulfonyl)phenyl)sulfonamido)-N-(3-phenylbicyclo[1.1.1]pentan-1-yl)benzamide] | 26.7 |
| CN(C)S(=O)(=O)Nc1ccc(C(F)(F)F)cc1C(=O)NC12CC(C(F)(F)F)(C1)C2 [Example 189, 2-((N,N-dimethylsulfamoyl)amino)-5-(trifluoromethyl)-N-(3-(trifluoromethyl)bicyclo[1.1.1]pentan-1-yl)benzamide] | 0.511 |
| CS(=O)(=O)Nc1cc(F)ccc1C(=O)NC12C3C4C5C3C1C5C42 (stereo not shown) [Example 139, N-(cuban-1-yl)-4-fluoro-2-(methylsulfonamido)benzamide] | 23.7 |
| CS(=O)(=O)N1C2CCC1CC(NC(=O)c1ccc(F)cc1NS(=O)(=O)CCC(F)(F)F)C2 (stereo not shown) [Example 217, 4-fluoro-N-(8-(methylsulfonyl)-8-azabicyclo[3.2.1]octan-3-yl)-2-((3,3,3-trifluoropropyl)sulfonamido)benzamide] | 112 |
| CC(C)S(=O)(=O)Nc1ccc(C(F)(F)F)cc1C(=O)NC12CC(C#N)(C1)C2 [Example 68, N-(3-cyanobicyclo[1.1.1]pentan-1-yl)-2-((1-methylethyl)sulfonamido)-5-(trifluoromethyl)benzamide] | 5.13 |
| CN(C)S(=O)(=O)Nc1cc(F)c(F)cc1C(=O)NC12CCC(C#N)(CC1)CC2 [Example 236, N-(4-cyanobicyclo[2.2.2]octan-1-yl)-2-((N,N-dimethylsulfamoyl)amino)-4,5-difluorobenzamide] | 25.2 |
| CS(=O)(=O)Nc1cc(Br)ccc1C(=O)NC12CC(C1)C2 [Example 47, N-(bicyclo[1.1.1]pentan-1-yl)-4-bromo-2-(methylsulfonamido)benzamide] | 17.3 |
| CC(C)(C)S(=O)(=O)Nc1cc(C(F)(F)F)ccc1C(=O)NC12CC(C(F)(F)F)(C1)C2 [Example 110, 2-((1,1-dimethylethyl)sulfonamido)-4-(trifluoromethyl)-N-(3-(trifluoromethyl)bicyclo[1.1.1]pentan-1-yl)benzamide] | 0.445 |
| O=C(NC12CCC(F)(CC1)CC2)c1cc(C(F)(F)F)ccc1NS(=O)(=O)Cc1ccccc1 [Example 197, N-(4-fluorobicyclo[2.2.2]octan-1-yl)-2-((phenylmethyl)sulfonamido)-5-(trifluoromethyl)benzamide] | 0.893 |
